# Experiments:
# IDO1 [1] = target: T1, IDO1 (Homo sapiens, UniProt P14902); test: IDO1 enzymatic assay; type: biochemical; parameters: His tag (N); made in house; host or cells: E. coli; conditions: read-out: Enzyme IC50 IDO1
# Outline: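 Assays were run in 50 mM potassium phosphate pH 7.5 with 0.1% BSA for 1.5 hours at 24 °C. Each contained 50 nM E. coli-purified, N-terminally His-tagged IDO1, compound, 1.3 mM D-tryptophan, 5 mM L-ascorbic acid, methylene blue and 0.4 mg/mL catalase. IC50 was calculated from remaining enzyme activity across a rising compound series, with activity taken as the slope of N'-formylkynurenine formation read continuously at 321 nm for 1 hour.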
# IDO1 [2] = target: T1, IDO1; test: Hela cell-based IDO1 assay; conditions: Hela cells
# Outline: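 Kynurenine was measured at 480 nm in trichloroacetic acid-deproteinised supernatant after adding 2% 4-(dimethylamino)benzaldehyde. This supernatant came from HeLa cells seeded at 8000 per well in 96-well plates in phenol red-free DMEM with 10% FBS and, from 4 hours after seeding, exposed for 48 hours at 37 °C, 5% CO2 to DMSO-diluted compound dilutions, IFN-γ (final 100 ng/mL) and 0.4 mM L-Trp. The resulting data were fitted with a four-parameter logistic model in XLfit. Potency was taken from those fits.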
# [3] = target: T2, cellular TDO2 in HEK293-TDO2 cells (Homo sapiens, UniProt P48775); test: 293-TDO2 cell-based assay (Kyn colorimetric); conditions: 48 hours of incubation
# T2 construct: expressed in transfected cells; host or cells: HEK293 (ATCC), stably transfected
# T2 sequence (P48775 whole entry): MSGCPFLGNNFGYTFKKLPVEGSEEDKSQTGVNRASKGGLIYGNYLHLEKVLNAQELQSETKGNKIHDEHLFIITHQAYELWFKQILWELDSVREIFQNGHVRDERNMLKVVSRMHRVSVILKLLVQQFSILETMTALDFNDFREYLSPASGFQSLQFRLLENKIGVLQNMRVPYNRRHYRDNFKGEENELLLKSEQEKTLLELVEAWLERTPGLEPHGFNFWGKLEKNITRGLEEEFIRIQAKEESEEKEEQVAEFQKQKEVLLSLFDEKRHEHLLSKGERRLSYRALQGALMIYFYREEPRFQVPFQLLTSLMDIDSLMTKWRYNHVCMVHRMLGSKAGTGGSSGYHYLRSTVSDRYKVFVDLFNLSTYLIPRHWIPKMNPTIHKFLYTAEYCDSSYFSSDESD
# Experimental: The inhibitory activity of TDO2 inhibitors is determined by using a colorimetric reaction to measure Kyn generated from L-Trp (L-Tryptophon) oxidation by cellular TDO2 in HEK293-TDO2 cells stably transfected with a plasmid expression of Tryptophan 2,3-dioxygenase (for short, 293-TDO2).
# HEK293 cells were obtained from the American Type Culture Collection and 293-TDO2 were recovered in 10% FBS-containing phenol red-free DMEM medium. Cells were plated onto a 96-well plate (100 μl/well) at 10000 cells per well and kept at 37° C. in a humidified incubator supplied with 5% CO2. 4 hours later, Compounds at different concentrations diluted in dimethylsulfoxide (DMSO) were added to plate. Cells were kept at 37° C. in a humidified incubator supplied with 5% CO2. After 48 hours of incubation, 100 μl supernatant from each well was removed to a new plate. The protein in the medium was precipitated with the addition of 8 μl 6N trichloroacetic acid. The plate was incubated at 60° C. for 30 minutes and then centrifugation at 2500 rpm for 10 minutes to remove sediments. 80 μl supernatants were carefully removed to a new clean plate and added with an equal volume of 2% 4-(Dimethylamino) benzaldehyde (D2004, sigma) dissolved in glacial acetic acid. The absorbance at 480 nm wavelength derived from Kyn was measured using a PHERAstar FS plate reader (BMG LABTECH). The IC50 for each compound was derived from fitting the dose-response data to the four-parameter logistic model by using XLfit software (IDBS).
# T1 sequence (P14902 whole entry): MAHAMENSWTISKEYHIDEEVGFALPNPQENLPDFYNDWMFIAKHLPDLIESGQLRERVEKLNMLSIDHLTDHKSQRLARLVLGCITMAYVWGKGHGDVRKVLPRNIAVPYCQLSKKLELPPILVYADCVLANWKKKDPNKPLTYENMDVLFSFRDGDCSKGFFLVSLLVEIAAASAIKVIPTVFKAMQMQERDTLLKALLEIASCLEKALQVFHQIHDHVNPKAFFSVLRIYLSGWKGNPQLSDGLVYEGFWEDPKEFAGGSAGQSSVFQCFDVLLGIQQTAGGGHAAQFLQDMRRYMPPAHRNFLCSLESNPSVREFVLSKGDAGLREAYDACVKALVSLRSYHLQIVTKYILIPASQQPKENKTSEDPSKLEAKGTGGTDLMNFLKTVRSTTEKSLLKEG
SMILES,IC50 (IDO1 [1]) [nM],EC50 (IDO1 [2]) [nM],EC50 [3] [nM]
"Nc1ccc([C@H]2CC[C@H]([C@@H](O)c3c(C4CC4)ccc4cncn34)CC2)cc1 (single isomer, unassigned) [Example D122b]",5200,> 10000,> 10000
CC(=O)c1ccc(C2CCC(C(O)c3c(C4CC4)ccc4cncn34)CC2)cc1 (stereo not drawn) [Example D158],58,836,> 10000
"O[C@@H](c1c(C2CC2)ccc2cncn12)[C@H]1CC[C@H](c2ccc(Oc3ccccc3)cc2)CC1 (single isomer, unassigned) [Example D120b]",3700,4310,> 10000
"OC(c1c(C2CC2)ccc2cncn12)C1CCC(c2ccc3ccccc3c2)CC1 (stereo not drawn) [Example D136, (6-cyclopropylimidazo[1,5-a]pyridin-5-yl)(4-(naphthalen-2-yl)cyclohexyl)methanol]",51,358,> 10000
"COc1cccc([C@H]2CC[C@H]([C@H](O)c3c(C(C)C)ccc4cncn34)CC2)c1 (single isomer, unassigned) [Example D169a]",15,14,> 10000
"OC(c1c(C2CC2)ccc2cncn12)C1CCC(c2ccc(OC(F)(F)F)cc2)CC1 (stereo not drawn) [Example D105, (6-cyclopropylimidazo[1,5-a]pyridin-5-yl)(4-(4-trifluoromethoxy)phenylcyclohexyl)methanol]",76,869,> 10000
"CC(C)c1ccc2cncn2c1[C@H](O)[C@H]1CC[C@H](c2ccc(Cl)cc2)CC1 (single isomer, unassigned) [Example D115b]",4300,5680,> 10000
"OC(c1c(C2CC2)ccc2cncn12)C1CCC(c2cccc3ncccc23)CC1 (stereo not drawn) [Example D141, (6-cyclopropylimidazo[1,5-a]pyridin-5-yl)(4-(quinolin-5-yl)cyclohexyl)methanol]",23,21,> 10000
"COc1ccc(C2CCC(C(O)c3c(C4CC4)ccc4cncn34)CC2)cc1 (stereo not drawn) [Example D102, (6-cyclopropylimidazo[1,5-a]pyridin-5-yl)(4-(4-methoxyphenyl)cyclohexyl)methanol]",23,74,> 10000
"N#Cc1ccc(C2CCC(C(O)c3c(C4CC4)ccc4cncn34)CC2)cc1 (stereo not drawn) [Example D110, 4-(4-((6-cyclopropylimidazo[1,5-a]pyridin-5-yl)(hydroxy)methyl)cyclohexyl)benzonitrile]",40,373,> 10000
"OCC(CCl)Oc1ccc(C2CCC(C(O)c3c(C4CC4)ccc4cncn34)CC2)cc1 (stereo not drawn) [Example D108, 3-chloro-2-(4-(4-((6-cyclopropylimidazo[1,5-a]pyridin-5-yl) (hydroxy)methyl)cyclohexyl)phenoxy)propan-1-ol]",30,72,> 10000
"COc1ccccc1C1CCC(C(O)c2c(C3CC3)ccc3cncn23)CC1 (stereo not drawn) [Example D113, (6-cyclopropylimidazo[1,5-a]pyridin-5-yl)(4-(2-methoxyphenyl)cyclohexyl)methanol]",43,95,> 10000
"CC(C)c1ccc2cncn2c1C(O)C1CCC(c2cccc(F)c2)CC1 (stereo not drawn) [Example D167, (4-(3-fluorophenyl)cyclohexyl)(6-isopropylimidazo[1,5-a]pyridin-5-yl)methanol]",69,40,> 10000

# Second part, the molecule after the results:
IC50 (IDO1 [1]) [nM],EC50 (IDO1 [2]) [nM],EC50 [3] [nM],SMILES
42,96,> 10000,"OC(c1c(C2CC2)ccc2cncn12)C1CCC(c2cc(F)cc(F)c2)CC1 (stereo not drawn) [Example D144, (6-cyclopropylimidazo[1,5-a]pyridin-5-yl)(4-(3,5-difluorophenyl)cyclohexyl)methanol]"
> 10000,> 10000,> 10000,"Cc1ccc([C@H]2CC[C@H]([C@@H](O)c3c(C4CC4)ccn4cncc34)CC2)cc1 (single isomer, unassigned) [Example C110b]"
> 10000,9370,> 10000,"OC(c1c(C2CC2)ccc2cncn12)[C@H]1CC[C@H](c2ccc(F)cc2Cl)CC1 (single isomer, unassigned) [Example D130b]"
270,4840,> 10000,"OC(c1cc(C2CC2)cc2cncn12)C1CCC(c2ccc(Cl)cc2)CC1 (stereo not drawn) [Example E102, (4-(4-chlorophenyl)cyclohexyl)(7-cyclopropylimidazo[1,5-a]pyridin-5-yl)methanol]"
50,279,> 10000,"OC(c1c(C2CC2)ccc2cncn12)C1CCC(c2ccc(F)cc2Cl)CC1 (stereo not drawn) [Example D130, (4-(2-chloro-4-fluorophenyl)cyclohexyl)(6-cyclopropylimidazo[1,5-a]pyridin-5-yl)methanol]"
30,65,> 10000,"OC(c1c(C2CC2)ccc2cncn12)C1CCN(c2cccc(Cl)c2)CC1 (stereo not drawn) [Example D173, (1-(3-chlorophenyl)piperidin-4-yl)(6-cyclopropylimidazo[15-a]pyridin-5-yl)methanol]"
35,373,> 10000,"OC(c1c(C2CC2)ccn2cncc12)C1CCN(c2ccnc3ccc(F)cc23)CC1 (stereo not drawn) [Example C151, (7-cyclopropylimidazo[1,5-a]pyridin-8-yl)(1-(6-fluoroquinolin-4-yl)piperidin-4-yl)methanol]"
76,105,> 10000,"OC(c1c(C2CC2)ccn2cncc12)C1CCN(c2ccc(F)c(F)c2)CC1 (stereo not drawn) [Example C141, (7-cyclopropylimidazo[1,5-a]pyridin-8-yl)(1-(3,4-difluorophenyl)piperidin-4-yl)methanol]"
96,2180,> 10000,"OC(c1c(C2CC2)ccn2cncc12)C1CCC(c2ccc(C(F)(F)F)nc2)CC1 (stereo not drawn) [Example C120, (7-cyclopropylimidazo[1,5-a]pyridin-8-yl)(4-(6-(trifluoromethyl)pyridin-3-yl)cyclohexyl)methanol]"
12,7.7,> 10000,"O[C@H](c1c(C2CC2)ccc2cncn12)C1CCN(c2ccc(F)c3ncccc23)CC1 (single isomer, unassigned) [Example D175a]"
> 10000,> 10000,> 10000,"N#Cc1ccc(N2CCC(C(O)c3c(C4CC4)ccn4cncc34)CC2)cc1 (single isomer, unassigned) [Example C144b]"
740,407,> 10000,"O[C@@H](c1c(C2CC2)ccc2cncn12)C1CCN(c2ccc(F)c3ncccc23)CC1 (single isomer, unassigned) [Example D175b]"
39,148,> 10000,"OC(c1c(C2CC2)ccn2cncc12)C1CCC(c2ccc(OC3CCOCC3)cc2)CC1 (stereo not drawn) [Example C119, (7-cyclopropylimidazo[1,5-a]pyridin-8-yl)(4-(4-((tetrahydro-2H-pyran-4-yl)oxy)phenyl)cyclohexyl)methanol]"
40,42,> 10000,"OC(c1c(C2CC2)ccn2cncc12)C1CCN(c2ccc(F)c3ncccc23)CC1 (stereo not drawn) [Example C149, (7-cyclopropylimidazo[1,5-a]pyridin-8-yl)(1-(8-fluoroquinolin-5-yl)piperidin-4-yl)methanol]"
65,157,> 10000,"OC(c1c(C2CC2)ccn2cncc12)C1CCC(c2ccc(F)cc2)CC1 (racemic) [Example C107, (7-cyclopropylimidazo[1,5-a]pyridin-8-yl)(4-(4-fluorophenyl)cyclohexyl)methanol]"
19,476,> 10000,"N#Cc1ccc(N2CCC(C(O)c3c(C4CC4)ccn4cncc34)CC2)cc1 (single isomer, unassigned) [Example C144a]"
9900,6830,> 10000,"O[C@@H](c1c(C2CC2)ccc2cncn12)[C@H]1CC[C@H](c2ccc(F)cc2)CC1 (single isomer, unassigned) [Example D104b]"

# From patent publication US10882856B2 (BeiGene, Ltd., priority 2017, dated 2021)
